{
  "source": "patent US8329865B2",
  "about": "“Antimicrobially active peptides” (priority 2001, dated 2012)",
  "molecules": {"B1": {"name": "DCD protein: DCD protein comprising the sequence SEQ ID No: 1, 110 amino acid residues (protein, listed as Homo sapiens)", "chain": "MRFMTLLFLTALAGALVCAYDPEAASAPGSGNPCHEASAAQKENAGEDPGLARQAPKPRKQRSSLLEKGLDGAKKAVGGLGKLGKDAVEDLESVGKGAVHDVKDVLDSVL"}},
  "key": {"[1]": {"system": "P. aeruginosa ATCC 27853", "type": "cell-based, Pseudomonas aeruginosa", "description": "(§1) Antimicrobial assays. Antimicrobial assays were performed using the CFU assay as previously described (Rieg, S. et al. 2005 J. Immunol. 174:8003-8010, Schittek, B. et al. 2001 Nat. Immunol. 2:1133-1137). The antibacterial activity of DCD-derived peptides and LL-37 was tested against the following bacterial strains: Escherichia coli ATCC 25922, methicillin-susceptible Staphylococcus aureus ATCC 25923 (MSSA), methicillin-resistant Staphylococcus aureus (MRSA; clinical isolate), Staphylococcus epidermidis ATCC 12228, and Pseudomonas aeruginosa ATCC 27853. E. coli ML-35p was generously provided by Robert Lehrer (Department of Medicine, Center for Health Sciences, Los Angeles, Calif.) and cultivated on Luria-Bertani (LB) plates containing 50 μg of ampicillin/ml. This strain constitutively expresses cytoplasmic […] but lacks lactose permease (Lehrer, R. I. et al. 1988 J. Immunol. Methods 108:153-158). The bacterial membrane mutants Staphylococcus aureus mprF and dltA and Staphylococcus epidermidis Δica and the corresponding wild-type strains S. aureus 113 and S. epidermidis 1457 were previously described (Gotz, F. 2002 Mol. Microbiol. 43:1367-1378, Peschel, A. et al. 2001 J. Exp. Med. 193:1067-1076). Bacterial cultures were grown to mid-exponential growth phase and washed three times with 10 mM sodium phosphate buffer-10 mM NaCl (pH 7.0). The bacterial concentration was estimated photometrically at 600 nm. Absorbance of 1.0 corresponded to 8.56×10^8/ml for E. coli; 1×10^8/ml for E. coli ML-35p; 1.97×10^8/ml for S. aureus, MRSA, and the wild-type and membrane mutants of S. aureus and S. epidermidis; and 5.07×10^8/ml for P. aeruginosa.\n(§2) After dilution to a concentration of 10^6 CFU/ml, 10-μl portions of the dilutions were incubated at 37° C. for 2 to 4 h with the respective peptide diluted in water in a total volume of 30 μl in 10 mM sodium phosphate buffer-10 mM NaCl (pH 7.0). After incubation, the cells were diluted 1:100 in 10 mM sodium phosphate buffer-10 mM NaCl (pH 7.0), and 90 μl of the diluted bacterial suspension was plated in triplicates on blood agar. Bacterial colonies were counted after incubation for 18 to 24 h at 37° C. The antimicrobial activity was calculated by using [(cell survival after peptide incubation)/(cell survival in buffer without peptide)×100]. The LC90 describes the lethal concentration of the current synthetic peptide in μg/ml or μM that leads to a 90% reduction of CFU compared to the buffer control.\n(§3) ^aThe 90% inhibitory concentration (IC90) is the concentration of peptide in μg/ml (or in μM [in parentheses]) able to kill 90% of the microorganisms in 10 mM NaP-10 mM NaCl in a CFU assay compared to the control incubated only in buffer without peptide. ND, not determined."}, "[2]": {"system": "E. coli ATCC 25922", "type": "cell-based, Escherichia coli", "description": "as §1, §2, §3"}, "[3]": {"system": "E. coli ML-35p", "type": "cell-based, Escherichia coli", "details": "10 mM NaP-10 mM NaCl, CFU assay", "description": "as §1, §2, §3"}, "[4]": {"system": "S. epidermidis Δica", "type": "cell-based, Staphylococcus epidermidis", "details": "10 mM NaP-10 mM NaCl, CFU assay", "description": "as §1, §2, §3"}, "[5]": {"system": "S. epidermidis ATCC 12228", "type": "cell-based, Staphylococcus epidermidis", "description": "as §1, §2, §3"}, "[6]": {"system": "S. aureus (MSSA) ATCC 25923", "type": "cell-based, Staphylococcus aureus", "description": "as §1, §2, §3"}, "[7]": {"system": "S. aureus mprF", "type": "cell-based, Staphylococcus aureus", "details": "10 mM NaP-10 mM NaCl, CFU assay", "description": "as §1, §2, §3"}, "[8]": {"system": "S. aureus dltA", "type": "cell-based, Staphylococcus aureus", "details": "10 mM NaP-10 mM NaCl, CFU assay", "description": "as §1, §2, §3"}, "[9]": {"system": "Escherichia coli, Staphylococcus aureus, Enterococcus faecalis and Candida albicans", "experiment": "CFU test (colony-forming units), Example 4", "type": "cell-based", "details": "sodium phosphate buffer, 37° C., 3 h, 4 h or overnight", "description": "The antimicrobial effect of said peptides was carried out by a CFU test (test for colony-forming units) as described for the defensins by Valore et al., “Human Beta-Defensin-1: An Antimicrobial Peptide of Urogenital Tissues”, J Clin Invest 101, 1633-1642 (1998).\nThe test of the novel peptides was carried out with Escherichia coli, Staphylococcus aureus, Enterococcus faecalis and Candida albicans. E. coli was incubated in LB medium, E. faecalis and S. aureus in Columbia medium (Difko, BD Heidelberg) and C. albicans in casein hydrolysate medium (Merck, Darmstadt). The amounts of bacteria and yeasts were determined by photometry. The bacterial strains were incubated to an optical density of […] at 600 nm and the yeast was incubated to an optical density of 0.4-0.6 at 450 nm. The amount of the organisms was determined by plating various dilutions as follows: an OD of 1 at 600 nm is equivalent to 8.2×10^9/ml for E. coli, 1.9×10^10/ml for S. aureus and 9.0×10^9/ml for E. faecalis, and an OD of 1 at […] is equivalent to 1.4×10^8/ml for C. albicans.\nThe cells were washed twice with 10 mM sodium phosphate buffer (pH 7.4) and diluted to 2-3×10^7 cells/ml (E. coli, E. faecalis), 5.7×10^7 cells/ml (S. aureus) or 5×10^5 cells/ml (C. albicans) in phosphate buffer.\nThe cells were incubated with various amounts of the peptides in 200 μl of sodium phosphate buffer at 37° C. for 3 h, 4 h or overnight (21-24 h). The cells were diluted 1:10 to 1:100 for the bacteria and 1:500 to 1:5000 for the yeast, and 50 μl, 100 μl and 200 μl were plated on appropriate agar plates. The plates were incubated at 37° C. overnight, and the number of colonies was counted. The antimicrobial effect of the peptides has been stated as percentage of killed cells: [1−(cell survival after incubation with the peptide)/(cell survival after control incubation)]×100."}, "[10]": {"system": "S. aureus (ATCC 25923)", "experiment": "TEM and IEM of peptide-treated bacteria", "type": "cell-based, Staphylococcus aureus", "description": "FIG. 10. Morphology of peptide-treated S. aureus. […] As a negative control cells were incubated in buffer without peptide. For the immune-EM, bacteria were incubated with a polyclonal antiserum to DCD-1, and the reactivity was detected by immunogold labeling. Seen is the binding of DCD to the bacterial surface.\nTEM and IEM. Liquid cultures of S. aureus (ATCC 25923) cells grown up to mid-logarithmic phase were washed twice in 10 mM sodium phosphate buffer (pH 7.4). […] In parallel, antimicrobial assays with both peptides were performed which confirmed the antibacterial activity of both peptides. For immune electron microscopy (IEM), cells were fixed in PLP and centrifuged, and the resulting bacterial pellet was embedded in 3.5% agarose at 37° C. and cooled on ice. Small parts of agarose blocks were embedded in Lowicryl (Polysciences, Eppelheim, Germany). Ultrathin sections (50 nm) were mounted on Formvar-coated nickel grids and incubated with rabbit anti-DCD, followed by 10-nm gold-conjugated goat anti-rabbit immunoglobulin G (Auroprobe EM; Amersham, Freiburg, Germany). In control samples the primary antibody was omitted. Samples were examined by using a Zeiss 109 transmission electron microscope (Zeiss, Oberkochen, Germany). For transmission EM (TEM) bacterial pellets were fixed in Karnovsky's fixative, postfixed in 1% osmium tetroxide, and embedded in Epon."}},
  "note": "No end group written: not given here.",
  "data": [
    {"molecule": "LEKGLDGAKKAVGGLGKLGKDAVEDLESVGKGAVHDVKDVLDSVL [LEK-45]", "values": [
      {"measurement": "IC90", "setting": "[1]", "value": ">200 (>44) μg/ml"},
      {"measurement": "IC90", "setting": "[2]", "value": ">200 (>44) μg/ml"},
      {"measurement": "IC90", "setting": "[3]", "value": "> 200", "unit": "mg/L"},
      {"measurement": "IC90", "setting": "[4]", "value": "> 200", "unit": "mg/L"},
      {"measurement": "IC90", "setting": "[5]", "value": "200 (44) μg/ml"},
      {"measurement": "IC90", "setting": "[6]", "value": ">200 (>44) μg/ml"},
      {"measurement": "IC90", "setting": "[7]", "value": "> 200", "unit": "mg/L"},
      {"measurement": "IC90", "setting": "[8]", "value": "> 200", "unit": "mg/L"}
    ]},
    {"molecule": "SSLLEKGLDGAKKAVGGLGKLGK [SSL-23]", "values": [
      {"measurement": "IC90", "setting": "[1]", "value": ">200", "unit": "µg/mL"},
      {"measurement": "IC90", "setting": "[2]", "value": 10, "unit": "µg/mL"},
      {"measurement": "IC90", "setting": "[4]", "value": ">200", "unit": "mg/L"},
      {"measurement": "IC90", "setting": "[5]", "value": 8, "unit": "µg/mL"},
      {"measurement": "IC90", "setting": "[6]", "value": 10, "unit": "µg/mL"},
      {"measurement": "IC90", "setting": "[7]", "value": 50, "unit": "mg/L"},
      {"measurement": "IC90", "setting": "[8]", "value": 10, "unit": "mg/L"}
    ]},
    {"molecule": "SSLLEKGLDGAKKAVGGLGKLGKDA [SSL-25]", "values": [
      {"measurement": "IC90", "setting": "[1]", "value": 200, "unit": "µg/mL"},
      {"measurement": "IC90", "setting": "[2]", "value": 10, "unit": "µg/mL"},
      {"measurement": "IC90", "setting": "[3]", "value": 9, "unit": "mg/L"},
      {"measurement": "IC90", "setting": "[5]", "value": ">200", "unit": "µg/mL"},
      {"measurement": "IC90", "setting": "[6]", "value": 48, "unit": "µg/mL"},
      {"measurement": "IC90", "setting": "[7]", "value": ">200", "unit": "mg/L"},
      {"measurement": "IC90", "setting": "[8]", "value": ">200", "unit": "mg/L"}
    ]},
    {"molecule": "SSLLEKGLDGAKKAVGGLGKLGKDAVEDL [SSL-29]", "values": [
      {"measurement": "IC90", "setting": "[1]", "value": ">200 (>69) μg/ml"},
      {"measurement": "IC90", "setting": "[2]", "value": ">200 (>69) μg/ml"},
      {"measurement": "IC90", "setting": "[3]", "value": "> 200", "unit": "mg/L"},
      {"measurement": "IC90", "setting": "[5]", "value": "200 (69) μg/ml"},
      {"measurement": "IC90", "setting": "[6]", "value": ">200 (>69) μg/ml"},
      {"measurement": "IC90", "setting": "[7]", "value": 180, "unit": "mg/L"}
    ]},
    {"molecule": "SSLLEKGLDGAKKAVGGLGKLGKDAVEDLESVGKGAVHDVKDVLDSV (synthetic fragment of DCD protein) [DCD-1]", "values": [
      {"measurement": "antimicrobial effect (percentage of killed cells)", "setting": "[9]", "value": "quantity-dependent antimicrobial effect"},
      {"measurement": "morphological changes of S. aureus (transmission EM)", "setting": "[10]; 100 μg/ml for 4 h", "value": "no signs of cell wall damage. Instead, we observed cellular disintegration"},
      {"measurement": "localisation of peptide on bacteria (immune-EM)", "setting": "[10]; antiserum to DCD-1, immunogold labeling", "value": "able to bind to the cell surface but is not found in the bacterial cytoplasm"}
    ]},
    {"molecule": "SSLLEKGLDGAKKAVGGLGKLGKDAVEDLESVGKGAVHDVKDVLDSVL [DCD-1L]", "values": [
      {"measurement": "IC90", "setting": "[1]", "value": ">200", "unit": "µg/mL"},
      {"measurement": "IC90", "setting": "[2]", "value": 45, "unit": "µg/mL"},
      {"measurement": "IC90", "setting": "[3]", "value": 30, "unit": "mg/L"},
      {"measurement": "IC90", "setting": "[4]", "value": ">200", "unit": "mg/L"},
      {"measurement": "IC90", "setting": "[5]", "value": 10, "unit": "µg/mL"},
      {"measurement": "IC90", "setting": "[6]", "value": 45, "unit": "µg/mL"},
      {"measurement": "IC90", "setting": "[7]", "value": 50, "unit": "mg/L"},
      {"measurement": "IC90", "setting": "[8]", "value": 6, "unit": "mg/L"}
    ]},
    {"molecule": "YDPEAASAPGSGNPCHEASAAQKENAGEDP [Y-P30, survival promoting peptide Y-P30 with one amino acid replaced, reference compound]", "values": [
      {"measurement": "antimicrobial effect (percentage of killed cells)", "setting": "[9]", "value": "no appreciable antimicrobial effect"}
    ]},
    {"molecule": "B1", "values": [
      {"measurement": "antimicrobial effect (percentage of killed cells)", "setting": "[9]", "value": "toxic"}
    ]}
  ]
}
